Reference: the supplement of paper PMC10627819

Legend:
Test in all cases: fitness (endpoint OD595 vs no drug) (fraction); higher = more growth
B. subtilis 168 = tested on: B. subtilis 168
Summary of the method: (§1)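 Volumes were 30 µl per well, or 55 µl for S. pneumoniae, in 384-well plates inoculated at OD595 0.01. Media were TSB, LB Lennox or CY at 37 °C, and OD595 was read every 30 min for 14 h with first-reading background subtraction. Fitness is the ratio of optical density at stationary-phase entry to the robust mean of no-drug controls. That ratio is capped at 1.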

S. aureus Newman = conditions: one replicate
Summary of the method: as §1

S. pneumoniae D39V = tested on: S. pneumoniae D39V
Summary of the method: as §1

O=C(O)[C@H]1/C(=C/CO)O[C@@H]2CC(=O)N21 [Clavulanic acid] + CN[C@@H]1[C@H](O[C@H]2[C@H](O[C@H]3[C@H](O)[C@@H](O)[C@H](N=C(N)N)[C@@H](O)[C@@H]3N=C(N)N)O[C@@H](C)[C@]2(O)C=O)O[C@@H](CO)[C@H](O)[C@H]1O [Streptomycin]
fitness
Conditions | partner 2 µg/mL | partner 4 µg/mL | partner 8 µg/mL
B. subtilis 168, first compound 1.5 µg/mL | 0.963 | – | 0.0564
B. subtilis 168, first compound 3 µg/mL | 0.93 | – | 0.0395
B. subtilis 168, first compound 6 µg/mL | 0.804 | – | 0.0332
S. aureus Newman, first compound 0.03125 µg/mL | 0.945 | 0.937 | 0.753
S. aureus Newman, first compound 0.0625 µg/mL | ≥ 1 | 0.936 | 0.786
S. aureus Newman, first compound 0.125 µg/mL | 0.991 | 0.938 | 0.786
S. pneumoniae D39V, first compound 0.5 µg/mL | 0.955 | 0.929 | 0.901
S. pneumoniae D39V, first compound 1 µg/mL | 0.899 | 0.886 | 0.855
S. pneumoniae D39V, first compound 2 µg/mL | 0.757 | 0.78 | 0.768

S. pneumoniae D39V, partner 16 µg/mL, one replicate
Conditions | fitness
first compound 0.5 µg/mL | 0.761
first compound 1 µg/mL | 0.774
first compound 2 µg/mL | 0.649

O=C(O)[C@H]1/C(=C/CO)O[C@@H]2CC(=O)N21 [Clavulanic acid] + CN1C2=CC=CC=C2N=C3C1=CC=CC3=O [Pyocyanin]
fitness
Conditions | partner 0.65 µg/mL | partner 1.25 µg/mL | partner 1.3 µg/mL | partner 2.5 µg/mL | partner 5 µg/mL
B. subtilis 168, first compound 1.5 µg/mL | – | 0.91 | – | 0.837 | 0.678
B. subtilis 168, first compound 3 µg/mL | – | 0.798 | – | 0.818 | 0.665
B. subtilis 168, first compound 6 µg/mL | – | 0.748 | – | 0.719 | 0.604
S. aureus Newman, first compound 0.03125 µg/mL | – | 0.884 | – | 0.898 | 0.723
S. aureus Newman, first compound 0.0625 µg/mL | – | 0.934 | – | 0.87 | 0.785
S. aureus Newman, first compound 0.125 µg/mL | – | 0.855 | – | 0.827 | 0.74
S. pneumoniae D39V, first compound 0.5 µg/mL | ≥ 1 | – | 0.765 | – | –
S. pneumoniae D39V, first compound 1 µg/mL | 0.94 | – | 0.791 | – | –
S. pneumoniae D39V, first compound 2 µg/mL | 0.861 | – | 0.581 | – | –

O=C(O)[C@H]1/C(=C/CO)O[C@@H]2CC(=O)N21 [Clavulanic acid] + CN(C)c1cc(NC(=O)CNC(C)(C)C)c(O)c2c1C[C@H]1C[C@H]3[C@H](N(C)C)C(O)=C(C(N)=O)C(=O)[C@@]3(O)C(O)=C1C2=O [Tigecycline]
Conditions | fitness
B. subtilis 168, first compound 1.5 µg/mL, partner 0.039 µg/mL | 0.98
B. subtilis 168, first compound 1.5 µg/mL, partner 0.078 µg/mL | 0.919
B. subtilis 168, first compound 1.5 µg/mL, partner 0.156 µg/mL | 0.884
B. subtilis 168, first compound 3 µg/mL, partner 0.039 µg/mL | 0.888
B. subtilis 168, first compound 3 µg/mL, partner 0.078 µg/mL | 0.899
B. subtilis 168, first compound 3 µg/mL, partner 0.156 µg/mL | 0.889
B. subtilis 168, first compound 6 µg/mL, partner 0.039 µg/mL | 0.82
B. subtilis 168, first compound 6 µg/mL, partner 0.078 µg/mL | 0.796
B. subtilis 168, first compound 6 µg/mL, partner 0.156 µg/mL | 0.79
S. aureus Newman, first compound 0.03125 µg/mL, partner 0.039 µg/mL | 0.952
S. aureus Newman, first compound 0.03125 µg/mL, partner 0.078 µg/mL | 0.933
S. aureus Newman, first compound 0.03125 µg/mL, partner 0.156 µg/mL | 0.96
S. aureus Newman, first compound 0.0625 µg/mL, partner 0.039 µg/mL | 0.987
S. aureus Newman, first compound 0.0625 µg/mL, partner 0.078 µg/mL | 1
S. aureus Newman, first compound 0.0625 µg/mL, partner 0.156 µg/mL | 0.971
S. aureus Newman, first compound 0.125 µg/mL, partner 0.039 µg/mL | 0.919
S. aureus Newman, first compound 0.125 µg/mL, partner 0.078 µg/mL | 0.884
S. aureus Newman, first compound 0.125 µg/mL, partner 0.156 µg/mL | 0.898
S. pneumoniae D39V, first compound 0.5 µg/mL, partner 0.325 µg/mL | ≥ 1
S. pneumoniae D39V, first compound 0.5 µg/mL, partner 0.65 µg/mL | 0.965
S. pneumoniae D39V, first compound 0.5 µg/mL, partner 1.3 µg/mL | 0.931
S. pneumoniae D39V, first compound 0.5 µg/mL, partner 2.6 µg/mL | 0.866
S. pneumoniae D39V, first compound 1 µg/mL, partner 0.325 µg/mL | 0.908
S. pneumoniae D39V, first compound 1 µg/mL, partner 0.65 µg/mL | 0.889
S. pneumoniae D39V, first compound 1 µg/mL, partner 1.3 µg/mL | 0.877
S. pneumoniae D39V, first compound 1 µg/mL, partner 2.6 µg/mL | 0.814
S. pneumoniae D39V, first compound 2 µg/mL, partner 0.325 µg/mL | 0.717
S. pneumoniae D39V, first compound 2 µg/mL, partner 0.65 µg/mL | 0.782
S. pneumoniae D39V, first compound 2 µg/mL, partner 1.3 µg/mL | 0.815
S. pneumoniae D39V, first compound 2 µg/mL, partner 2.6 µg/mL | 0.755

fitness, B. subtilis 168, one replicate
Conditions | first compound 1.5 µg/mL | first compound 3 µg/mL | first compound 6 µg/mL
partner 0.125 µg/mL | 0.956 | 0.952 | 0.814
partner 0.25 µg/mL | 0.863 | 0.928 | 0.821
partner 0.5 µg/mL | 0.866 | 0.865 | 0.765

O=C(O)[C@H]1/C(=C/CO)O[C@@H]2CC(=O)N21 [Clavulanic acid] + Cc1onc(-c2ccccc2)c1C(=O)N[C@@H]1C(=O)N2[C@@H]1SC(C)(C)[C@@H]2C(=O)O [Oxacillin]
Conditions | fitness
B. subtilis 168, first compound 1.5 µg/mL, partner 0.002 µg/mL | 0.917
B. subtilis 168, first compound 1.5 µg/mL, partner 0.004 µg/mL | 0.956
B. subtilis 168, first compound 1.5 µg/mL, partner 0.008 µg/mL | 0.962
B. subtilis 168, first compound 3 µg/mL, partner 0.002 µg/mL | 0.901
B. subtilis 168, first compound 3 µg/mL, partner 0.004 µg/mL | 0.899
B. subtilis 168, first compound 3 µg/mL, partner 0.008 µg/mL | 0.866
B. subtilis 168, first compound 6 µg/mL, partner 0.002 µg/mL | 0.827
B. subtilis 168, first compound 6 µg/mL, partner 0.004 µg/mL | 0.788
B. subtilis 168, first compound 6 µg/mL, partner 0.008 µg/mL | 0.762
S. aureus Newman, first compound 0.03125 µg/mL, partner 0.0156 µg/mL | 0.861
S. aureus Newman, first compound 0.03125 µg/mL, partner 0.0312 µg/mL | 0.801
S. aureus Newman, first compound 0.03125 µg/mL, partner 0.0625 µg/mL | 0.628
S. aureus Newman, first compound 0.0625 µg/mL, partner 0.0156 µg/mL | 0.785
S. aureus Newman, first compound 0.0625 µg/mL, partner 0.0312 µg/mL | 0.784
S. aureus Newman, first compound 0.0625 µg/mL, partner 0.0625 µg/mL | 0.564
S. aureus Newman, first compound 0.125 µg/mL, partner 0.0156 µg/mL | 0.749
S. aureus Newman, first compound 0.125 µg/mL, partner 0.0312 µg/mL | 0.697
S. aureus Newman, first compound 0.125 µg/mL, partner 0.0625 µg/mL | 0.584
S. pneumoniae D39V, first compound 0.5 µg/mL, partner 0.005 µg/mL | 0.994
S. pneumoniae D39V, first compound 0.5 µg/mL, partner 0.01 µg/mL | 0.953
S. pneumoniae D39V, first compound 0.5 µg/mL, partner 0.02 µg/mL | 0.943
S. pneumoniae D39V, first compound 0.5 µg/mL, partner 0.04 µg/mL | 0.401
S. pneumoniae D39V, first compound 1 µg/mL, partner 0.005 µg/mL | 0.952
S. pneumoniae D39V, first compound 1 µg/mL, partner 0.01 µg/mL | 0.888
S. pneumoniae D39V, first compound 1 µg/mL, partner 0.02 µg/mL | 0.837
S. pneumoniae D39V, first compound 1 µg/mL, partner 0.04 µg/mL | 0.228
S. pneumoniae D39V, first compound 2 µg/mL, partner 0.005 µg/mL | 0.846
S. pneumoniae D39V, first compound 2 µg/mL, partner 0.01 µg/mL | 0.749
S. pneumoniae D39V, first compound 2 µg/mL, partner 0.04 µg/mL | 0.0623

fitness, B. subtilis 168, one replicate
Conditions | partner 0.0078 µg/mL | partner 0.0155 µg/mL | partner 0.031 µg/mL | partner 0.075 µg/mL | partner 0.15 µg/mL | partner 0.3 µg/mL
first compound 1.5 µg/mL | 0.929 | 0.903 | 0.926 | 0.188 | 0.058 | 0.0448
first compound 3 µg/mL | 0.958 | 0.937 | 0.973 | 0.0579 | 0.0634 | 0.0505
first compound 6 µg/mL | 0.89 | 0.861 | 0.806 | 0.061 | 0.058 | 0.0518

O=C(O)[C@H]1/C(=C/CO)O[C@@H]2CC(=O)N21 [Clavulanic acid] + Cn1nnc(-c2ccc(-c3ccc(N4C[C@H](CO)OC4=O)cc3F)cn2)n1 [Tedizolid]
fitness
Conditions | partner 0.03125 µg/mL | partner 0.0625 µg/mL | partner 0.125 µg/mL | partner 0.25 µg/mL | partner 0.5 µg/mL
S. aureus Newman, first compound 0.03125 µg/mL | – | 0.827 | 0.498 | 0.0634 | –
S. aureus Newman, first compound 0.0625 µg/mL | – | 0.837 | 0.509 | 0.0552 | –
S. aureus Newman, first compound 0.125 µg/mL | – | 0.868 | 0.523 | 0.0639 | –
S. pneumoniae D39V, first compound 0.5 µg/mL | 0.953 | 0.943 | 0.693 | 0.261 | 0.0809
S. pneumoniae D39V, first compound 1 µg/mL | 0.887 | 0.938 | 0.673 | 0.371 | 0.227
S. pneumoniae D39V, first compound 2 µg/mL | 0.855 | 0.901 | 0.581 | 0.262 | 0.0776
